From ChEMBL document CHEMBL6182949 (J Med Chem, 2025)
Active and inactive are the calls of the source. The calls are words filed in the database; no cut-off is given here.

Assays:
[1] = AUClast in male C57BL/6 mouse at 2 mg/kg, iv measured up to 24 hrs by LC-MS/MS analysis; format: ADME, organism-based; settings: in vivo
[2] = Metabolic stability in human liver microsome assessed as half life at 1 uM measured up to 60 mins in presence of NADPH by LC-MS/MS analysis; format: ADME; settings: liver microsomes
[3] = AUClast in Sprague-Dawley rat at 2 mg/kg, iv measured up to 24 hrs by LC-MS/MS analysis; format: ADME, organism-based; settings: in vivo
hERG (KCNH2) = hERG (KCNH2) (Homo sapiens, UniProt Q12809); experiment: Inhibition of hERG expressed in HEK293 cells at 1 uM by manual patch clamp assay relative to control; format: toxicity, cell-based; settings: HEK293 cells expressing hERG
Sequence of hERG (KCNH2) (Q12809 whole entry): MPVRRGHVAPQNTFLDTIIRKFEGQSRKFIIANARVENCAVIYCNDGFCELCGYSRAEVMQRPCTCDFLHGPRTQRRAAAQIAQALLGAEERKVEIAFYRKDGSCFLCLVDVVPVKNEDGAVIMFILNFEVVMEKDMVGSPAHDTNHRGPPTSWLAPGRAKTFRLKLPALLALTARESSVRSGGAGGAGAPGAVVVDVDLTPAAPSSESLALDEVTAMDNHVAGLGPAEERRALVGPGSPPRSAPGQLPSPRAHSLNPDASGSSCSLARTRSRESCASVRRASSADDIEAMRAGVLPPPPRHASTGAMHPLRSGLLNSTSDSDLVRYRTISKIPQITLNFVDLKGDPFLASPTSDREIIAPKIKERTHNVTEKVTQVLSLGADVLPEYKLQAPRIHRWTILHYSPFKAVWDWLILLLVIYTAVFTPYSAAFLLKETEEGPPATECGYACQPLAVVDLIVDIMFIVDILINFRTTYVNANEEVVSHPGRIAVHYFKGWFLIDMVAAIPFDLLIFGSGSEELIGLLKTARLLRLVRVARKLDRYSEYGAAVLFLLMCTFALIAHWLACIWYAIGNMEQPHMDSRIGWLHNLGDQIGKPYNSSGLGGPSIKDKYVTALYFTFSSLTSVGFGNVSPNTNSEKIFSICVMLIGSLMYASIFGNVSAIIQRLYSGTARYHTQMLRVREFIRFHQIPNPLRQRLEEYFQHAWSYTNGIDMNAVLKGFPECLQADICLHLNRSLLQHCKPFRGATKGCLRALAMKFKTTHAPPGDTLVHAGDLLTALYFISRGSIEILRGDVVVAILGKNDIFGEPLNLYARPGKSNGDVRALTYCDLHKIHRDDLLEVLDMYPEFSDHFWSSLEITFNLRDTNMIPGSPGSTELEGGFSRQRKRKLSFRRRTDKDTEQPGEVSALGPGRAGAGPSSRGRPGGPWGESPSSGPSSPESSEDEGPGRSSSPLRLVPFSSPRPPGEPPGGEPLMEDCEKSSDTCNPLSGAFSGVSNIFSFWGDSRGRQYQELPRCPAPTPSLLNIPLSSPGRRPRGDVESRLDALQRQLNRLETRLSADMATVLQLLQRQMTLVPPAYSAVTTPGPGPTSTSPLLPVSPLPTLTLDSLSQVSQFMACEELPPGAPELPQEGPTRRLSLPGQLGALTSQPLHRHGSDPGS

[4] = Volume of distribution at steady state in Sprague-Dawley rat at 2 mg/kg, iv measured up to 24 hrs by LC-MS/MS analysis; format: ADME, organism-based; settings: in vivo, read-out: Vdss
[5] = Half life in male C57BL/6 mouse at 10 mg/kg, po measured up to 24 hrs by LC-MS/MS analysis; format: ADME, organism-based; settings: in vivo
[6] = Clearance in Sprague-Dawley rat at 2 mg/kg, iv measured up to 24 hrs by LC-MS/MS analysis; format: ADME, organism-based; settings: in vivo
[7] = Volume of distribution at steady state in male C57BL/6 mouse at 2 mg/kg, iv measured up to 24 hrs by LC-MS/MS analysis; format: ADME, organism-based; settings: in vivo, read-out: Vdss
[8] = AUClast in Sprague-Dawley rat at 10 mg/kg, po measured up to 24 hrs by LC-MS/MS analysis; format: ADME, organism-based; settings: in vivo
[9] = Tmax in male C57BL/6 mouse at 10 mg/kg, po measured up to 24 hrs by LC-MS/MS analysis; format: ADME, organism-based; settings: in vivo
[10] = Metabolic stability in dog liver microsome assessed as half life at 1 uM measured up to 60 mins in presence of NADPH by LC-MS/MS analysis; format: ADME, Canis lupus familiaris; settings: liver microsomes
[11] = Oral bioavailability in Sprague-Dawley rat at 10 mg/kg measured up to 24 hrs by LC-MS/MS analysis; format: ADME, organism-based; settings: in vivo
[12] = Tmax in Sprague-Dawley rat at 10 mg/kg, po measured up to 24 hrs by LC-MS/MS analysis; format: ADME, organism-based; settings: in vivo
[13] = Half life in male C57BL/6 mouse at 2 mg/kg, iv measured up to 24 hrs by LC-MS/MS analysis; format: ADME, organism-based; settings: in vivo
[14] = Cmax in male C57BL/6 mouse at 2 mg/kg, iv measured up to 24 hrs by LC-MS/MS analysis; format: ADME, organism-based; settings: in vivo
[15] = Metabolic stability in rat liver microsome assessed as half life at 1 uM measured up to 60 mins in presence of NADPH by LC-MS/MS analysis; format: ADME; settings: liver microsomes
[16] = Oral bioavailability in male C57BL/6 mouse at 10 mg/kg measured up to 24 hrs by LC-MS/MS analysis; format: ADME, organism-based; settings: in vivo
[17] = AUClast in male C57BL/6 mouse at 10 mg/kg, po measured up to 24 hrs by LC-MS/MS analysis; format: ADME, organism-based; settings: in vivo
[18] = Metabolic stability in mouse liver microsome assessed as half life at 1 uM measured up to 60 mins in presence of NADPH by LC-MS/MS analysis; format: ADME; settings: liver microsomes
[19] = target: T1, Protein cereblon/Interleukin-1 receptor-associated kinase 4 (Homo sapiens, UniProt Q9NWZ3+Q96SW2); experiment: PROTAC activity at CRBN/IRAK4 in human THP-1 cells assessed as induction of IRAK4 degradation incubated for 24 hrs by HiBiT lytic reagent based analysis relative to control; format: cell-based
Target sequence in this assay (Q96SW2 whole entry, looked up): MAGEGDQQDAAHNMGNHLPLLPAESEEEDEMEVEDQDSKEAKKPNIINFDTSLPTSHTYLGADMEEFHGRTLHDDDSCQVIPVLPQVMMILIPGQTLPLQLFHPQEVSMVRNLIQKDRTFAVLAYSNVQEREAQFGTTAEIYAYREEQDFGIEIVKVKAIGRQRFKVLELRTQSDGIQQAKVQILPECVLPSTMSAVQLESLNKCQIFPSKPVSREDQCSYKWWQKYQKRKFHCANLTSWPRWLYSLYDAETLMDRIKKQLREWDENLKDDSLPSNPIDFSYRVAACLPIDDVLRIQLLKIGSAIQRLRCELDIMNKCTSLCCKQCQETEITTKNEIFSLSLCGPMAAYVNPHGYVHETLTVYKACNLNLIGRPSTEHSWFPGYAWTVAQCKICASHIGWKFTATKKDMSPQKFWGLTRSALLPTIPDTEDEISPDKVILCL
Target sequence in this assay (Q9NWZ3 whole entry, looked up): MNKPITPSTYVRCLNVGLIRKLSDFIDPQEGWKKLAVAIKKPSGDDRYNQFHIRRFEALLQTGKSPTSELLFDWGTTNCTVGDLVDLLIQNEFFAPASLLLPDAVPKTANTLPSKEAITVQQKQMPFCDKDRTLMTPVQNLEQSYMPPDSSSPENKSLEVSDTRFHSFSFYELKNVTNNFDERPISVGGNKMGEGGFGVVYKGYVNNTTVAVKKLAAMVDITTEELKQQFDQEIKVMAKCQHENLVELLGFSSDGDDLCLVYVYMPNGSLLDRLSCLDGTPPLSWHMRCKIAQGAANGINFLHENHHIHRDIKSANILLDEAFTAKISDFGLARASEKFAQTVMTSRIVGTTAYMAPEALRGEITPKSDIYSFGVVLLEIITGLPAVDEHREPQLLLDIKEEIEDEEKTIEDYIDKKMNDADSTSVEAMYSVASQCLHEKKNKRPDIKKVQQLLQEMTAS

[20] = target: T1, Protein cereblon/Interleukin-1 receptor-associated kinase 4; experiment: PROTAC activity at CRBN/IRAK4 in human THP-1 cells assessed as induction of IRAK4 degradation incubated for 24 hrs by HiBiT lytic reagent based analysis; format: cell-based
Target sequence in this assay (Q9NWZ3 whole entry): as the sequence (Q9NWZ3 whole entry, looked up) above
Target sequence in this assay (Q96SW2 whole entry): as the sequence (Q96SW2 whole entry, looked up) above

[21] = Metabolic stability in cynomolgus monkey liver microsome assessed as half life at 1 uM measured up to 60 mins in presence of NADPH by LC-MS/MS analysis; format: ADME, Macaca fascicularis; settings: liver microsomes
[22] = Cmax in Sprague-Dawley rat at 10 mg/kg, po measured up to 24 hrs by LC-MS/MS analysis; format: ADME, organism-based; settings: in vivo
[23] = Half life in Sprague-Dawley rat at 10 mg/kg, po measured up to 24 hrs by LC-MS/MS analysis; format: ADME, organism-based; settings: in vivo
[24] = Cmax in Sprague-Dawley rat at 2 mg/kg, iv measured up to 24 hrs by LC-MS/MS analysis; format: ADME, organism-based; settings: in vivo
[25] = Cmax in male C57BL/6 mouse at 10 mg/kg, po measured up to 24 hrs by LC-MS/MS analysis; format: ADME, organism-based; settings: in vivo
[26] = Clearance in male C57BL/6 mouse at 2 mg/kg, iv measured up to 24 hrs by LC-MS/MS analysis; format: ADME, organism-based; settings: in vivo
[27] = Half life in Sprague-Dawley rat at 2 mg/kg, iv measured up to 24 hrs by LC-MS/MS analysis; format: ADME, organism-based; settings: in vivo
Mus musculus [28] = experiment: Anti-psoriasis effect in IMQ-induced C57BL/6 mouse assessed as reduction in cumulative score at 100 mg/kg administered topically twice daily for 6 days and measured after 24 hrs; format: functional, organism-based; settings: time 7.0 day
[29] = target: T1, Protein cereblon/Interleukin-1 receptor-associated kinase 4; experiment: PROTAC activity at CRBN/IRAK4 in human PBMC cells assessed as induction of IRAK4 degradation incubated for 24 hrs by HiBiT lytic reagent based analysis relative to control; format: cell-based
Target sequence in this assay (Q96SW2 whole entry, looked up): as above
Target sequence in this assay (Q9NWZ3 whole entry, looked up): as the sequence (Q9NWZ3 whole entry, looked up) above

Mus musculus [30] = experiment: Anti-psoriasis effect in IMQ-induced C57BL/6 mouse assessed as reduction in delta ear thickness at 100 mg/kg administered topically twice daily for 6 days and measured after 24 hrs; format: functional, organism-based; settings: time 7.0 day
[31] = Inhibition of LPS-stimulated IL-6 release in human PBMC cells; format: functional, cell-based
Mus musculus [32] = experiment: Anti-psoriasis effect in IMQ-induced C57BL/6 mouse assessed as reduction in delta ear thickness at 30 mg/kg administered topically twice daily for 6 days and measured after 24 hrs; format: functional, organism-based; settings: time 7.0 day
Mus musculus [33] = experiment: Anti-psoriasis effect in IMQ-induced C57BL/6 mouse assessed as reduction in cumulative score at 30 mg/kg administered topically twice daily for 6 days and measured after 24 hrs; format: functional, organism-based; settings: time 7.0 day
hERG = hERG (Homo sapiens, UniProt Q12809); experiment: Inhibition of hERG expressed in HEK293 cells at 10 uM by manual patch clamp assay relative to control; format: toxicity, cell-based; settings: HEK293 cells expressing hERG
Sequence of hERG (Q12809 whole entry): as the sequence (Q12809 whole entry) above

Row | SMILES | AUC(0-t) at 24 h [1] | half-life at 1 µM [2] | AUClast [3] | inhibition at 1 µM (hERG (KCNH2)) | Vd [4] | half-life [5] | clearance [6] | Vd [7] | AUClast [8] | Tmax [9] | half-life at 1 µM [10] | F [11] | Tmax [12] | half-life [13] | Cmax [14] | bioavailability [16] | AUC(0-t) at 24 h [17] | half-life at 1 µM [18] | Emax [19] | DC50 [20] | also measured
1 | Cn1c(=O)n(C2CCC(=O)NC2=O)c2cccc(C#CCO[C@H]3CC[C@H](CN4CCC5(CC4)Cc4cc(NC(=O)c6cnn7cccnc67)c(N6CCC(CO)CC6)cc4O5)CC3)c21 (stereo partly specified) | 7160 ng·h/mL | > 3.07 h | 2193 ng·h/mL | 28% | 3.26 L/kg | 3.7 h | 15.1 mL/min/kg | 0.94 L/kg | 3524 ng·h/mL | 2 h | > 3.07 h | 11% | 6 h | 2.69 h | 2000 ng/mL | 42% | 14800 ng·h/mL | > 3.07 h | 90% | 2.65 nM | half-life at 1 µM [15]: > 3.07 h; half-life at 1 µM [21]: 2.33 h; Cmax [22]: 261 ng/mL; half-life [23]: 3.58 h; Cmax [24]: 1030 ng/mL; Cmax [25]: 1540 ng/mL; clearance [26]: 4.67 mL/min/kg; half-life [27]: 3.94 h
2 | Cn1c(=O)n(C2CCC(=O)NC2=O)c2cccc(C#CCO[C@H]3CC[C@H](CN4CCC5(CC4)Cc4cc(NC(=O)c6cnn7cc(F)cnc67)c(N6CCC(CO)CC6)cc4O5)CC3)c21 (stereo partly specified) | 11700 ng·h/mL | > 3.07 h | 424 ng·h/mL | 36% | 3.12 L/kg | 4.27 h | 12.4 mL/min/kg | 0.96 L/kg | 8344 ng·h/mL | 4 h | > 3.07 h | 21% | 6 h | 4.07 h | 1380 ng/mL | 47% | 27000 ng·h/mL | > 3.07 h | 87% | 2.24 nM | Cmax [22]: 628 ng/mL; half-life [23]: 2.94 h; Cmax [24]: 243 ng/mL; Cmax [25]: 2280 ng/mL; clearance [26]: 2.83 mL/min/kg; half-life [27]: 3.14 h
3 | Cn1c(=O)n(C2CCC(=O)NC2=O)c2cccc(C#CCOC3CCN(C[C@H]4CC[C@H](n5cc(NC(=O)c6cnn7ccc(N8C[C@H]9C[C@@H]8CO9)nc67)c(C(F)F)n5)CC4)CC3)c21 (stereo partly specified) [KT-474] |  |  |  |  |  |  |  |  |  |  |  |  |  |  |  |  |  |  |  |  | Activity (Mus musculus [28]): inactive; Emax [29]: 82%; Activity (Mus musculus [30]): inactive; IC50 [31]: 29.1 nM; Activity (Mus musculus [32]): inactive; Activity (Mus musculus [33]): inactive
4 | Cn1c(=O)n(C2CCC(=O)NC2=O)c2cccc(C#CCO[C@H]3CC[C@H](CN4CCC5(CC4)Cc4cc(NC(=O)c6cnn7cccnc67)c(N6CCC(C(=O)O)CC6)cc4O5)CC3)c21 (stereo partly specified) |  | > 3.07 h |  |  |  |  |  |  |  |  | > 3.07 h |  |  |  |  |  |  | > 3.07 h | 38% | 12 nM | inhibition at 10 µM (hERG): 43%
